Values after ≈ are worked out from the molar mass of the structure shown. Values joined by “and” are separate entries in the source; they are usually repeats but may differ in a detail not shown here. Equal entries are not always repeated. “Also recorded” adds a separate entry of the source. Where two headings read alike, the source gives them in different places.
Legend:
[1] = tested on: P. falciparum; assay: Population PK/PD modelling (Emax model) and dose simulation; assay type: in vivo, Plasmodium falciparum
Procedure: (§1) Data preparation, exploration, model definition, model evaluation and simulations were performed in R (version 3.5.1) and the R package IQRtools (version 1.0.6; IntiQuan, Basel, Switzerland) within the software package MonolixSuite 2018R2 (Lixoft, Antony, France). The MIC and the minimum parasiticidal concentration that achieves 90% of maximum effect (MPC90) were derived from the PK/PD model. Simulations were performed to predict the minimum effective single dose, defined as the dose that clears 10^9 parasites/ml. Further detail on PK/PD modeling methods is presented in Text S1.
(§2) Pharmacokinetic/Pharmacodynamic modelling methods and results […]
(§3) The objectives of the PK/PD modelling anal ysis w ere:
(§4) 1. To develop a population PK model of cipar gamin in healthy subjects inoculated with blood stage P. falciparum .
(§5) 2. To char acterize the PK/PD relationship between cipargamin pharmacokinetics and parasite cl ear ance in h eal th subjects inoculated with blood stage P. falcipar um .
(§6) 3. To determine the minimum inhibitory concent ration (M IC ) of cipargamin .
(§7) 4. To establish the minimum effective cipar gamin single dose required to kill 10 9
(§8) Data preparation, exploration, model definition, model evaluation and simulations were performed in R (version 3.5.1) and the R package IQRtools (version 1.0.6, IntiQuan GmbH, Basel, Switzerland) withi n the software package MonolixSuite2018R2 (Li xoft, Anton y, Fran ce) which implemen ts stochastic approx imation ex pectation-maximisation (SAEM) algorithm for parameter estimation.
(§9) One-, two- and three-compartment with different absorption and elimination models were tested. Zero- and first-order absorption models wi th or without lag time were examined. Data below the lower limit of quantitation ( LLO Q; 0.001 µg/ m L) were treated using a left - censoring method. Between subject vari abilit y ( BSV) of the PK parameters was assumed to be normally distributed on log -scale. The random effects across the par ameters within an individual were modelled according to a multivari ate normal distribution (MVN). BS V w as […]
(§10) supported by the data.The residual unexplained variabilit y (RUV) was tested using a proportional or combined error models.
(§11) Population PK/PD modelling
(§12) A sequential PK/PD modelling approach was used in which the empirical Bayes estimates of individual PK parameters were us ed as r egression parameters for the PK/P D model. The observations below the limit of detection (LOD; 10 parasites/mL) were mo del led using a l eft-censoring method. In this anal ysis, the changes in parasitemia over time in the presen ce of antimalarial dru g are ass umed to be a result of the differen ce b etween p ar asite growth rate (k grow ) and the r ate at wh ich parasites are killed b y the drug (k k ill ) with a baseline parasitemia (P L base ) at time t 0 (time of inoculation). Diff erent structural PK/PD models were tested to assess the relationship of cipar gamin plasma concentration on the parasite ki lling rate. The E max model assumed a direct effect of cipargamin plasma concent rations on parasite killing.
The turnover model assumed an indirect effect of cipargamin plasma concentrations on parasite killing due to lag in the PD processes (i.e. the kinetics of dru g-receptor binding). The effect compartment mod el assumed an indirect ef fect of cipar gamin plasm a concentration on parasite killing due to biophase equilibration. This model can be interpreted as the dela y for the drug to reach the site of action in which the cip ar gamin concentrations i n the eff ect […]
compartment drives the d rug eff ect. The p arasite clear an ce model assumed that the observed parasites were a mixture of living and dead parasites and that the cipar gami n plasma […]
PD parameters wer e mod elled assuming a log-normal distribution with exception of ln-transformed b aseline par asite values (parasit emia at time of inoculation) w here a no rmal distribution was assumed. […]
were fixed to 0.2. […]

[2] = Population PK model (two-compartment); assay type: in vivo, human
Procedure: as §1, §2, §3, §4, §5, §6, §7, §8, §9, §10, §11, §12
The turnover model assumed an indirect effect of cipargamin plasma concentrations on parasite killing due to lag in the PD processes (i.e. the kinetics of dru g-receptor binding). The effect compartment mod el assumed an indirect ef fect of cipar gamin plasm a concentration on parasite killing due to biophase equilibration. […]

[3] = tested on: P. falciparum gametocytes; assay: Direct membrane feeding assay (DMFA), transmission to Anopheles stephensi mosquitoes; assay type: in vivo, Plasmodium falciparum; settings: blood collected 20 days after cipargamin dosing
Procedure: The transmission of parasites from subjects to female Anopheles stephensi mosquitoes was measured using a direct membrane feeding assay (DMFA) as previously described ([23]). Briefly, ∼100 mosquitoes (3 to 7 days old) were allowed to feed on a water-jacketed membrane feeder filled with venous blood collected 20 days after cipargamin dosing into lithium heparin anticoagulant tubes. Seven to 9 days after blood feeding, mosquitoes were dissected to detect oocysts in midgut preparations using qPCR targeting the gene encoding 18S rRNA.

[4] = tested on: P. falciparum; settings: cited from earlier work
[5] = parameters: method as in PMID 25114127; settings: cited from earlier work
[6] = cited from earlier work
[7] = tested on: rodent malaria model; parameters: method as in PMID 20813948; settings: cited from earlier work
[8] = tested on: Plasmodium berghei; parameters: method as in PMID 25114127, PMID 25487807; settings: human PK data with preclinical PK/PD analysis; cited from earlier work
[9] = plasma concentration, PK/PD model, 10 mg cohort
[10] = 25 P. falciparum patients, single doses of 10, 15, 20 or 30 mg
[11] = P. falciparum patient, day 6, not considered related
[12] = P. vivax patient, day 9, 30 mg per day for 3 days

For `C[C@H]1Cc2c([nH]c3cc(Cl)c(F)cc23)[C@@]2(N1)C(=O)Nc1ccc(Cl)cc12` [cipargamin], the “PRR48 actual, median (95% CI)” value ([1]; PK/PD model, 10 mg) was 2.59 (1.89 – 3.32) log10 unit, the “Time above MIC, median (95% CI)” value ([1]; PK/PD model, 10 mg) was 1.96 (1.59 –2.44) days and the “Time above MPC90, median (95% CI)” value ([1]; PK/PD model, 10 mg) was 0.89 (0.63–1.26) days. The “Emax, maximum parasite killing rate” value ([1]; final PK/PD Emax model, Hill coefficient fixed to 5) was 0.23 h⁻¹, the “MIC, median (95% CI)” value [1, 9] was 11.6 (9.9 – 13.3) ng/ml and 11.6 ng/ml and the “MPC90, minimum parasiticidal concentration that achieves 90% of maximum effect, median (95% CI)” value [1, 9] was 23.5 (19.9 – 27.4) ng/ml and 23.5 ng/ml. The “minimum effective single dose predicted to clear 10^9 parasites/ml” value ([1]; simulation in patients with malaria, 500 patients per dose, up to day 28) was 95 mg, the “CL/F, estimate (RSE %)” value ([2]; final population PK model) was 5.5 (10.7) L/h and the “Vc/F, estimate (RSE %)” value ([2]; final population PK model) was 64.4 (8.9) L. For the same compound, the “Q1/F, estimate (RSE %)” value ([2]; human, in vivo) was 12.9 (9.0) L/h, the “Vp1/F, estimate (RSE %)” value ([2]; human, in vivo) was 107 (4.8) L and the “ka, estimate (RSE %)” value ([2]; human, in vivo) was 0.919 (4.6) /h. For the same compound, the “transmission to mosquitoes (oocysts in midgut by qPCR)” value [3] was “did not transmit to mosquitoes; also recorded: could not be detected; also recorded: not observed”, the parasite clearance half-life ([4]; 10 mg single dose, patients with P. falciparum malaria) was 4.35 h and the parasite clearance half-life ([4]; 30 mg per day for 3 days, P. falciparum malaria patients) was 0.90 h. For the same compound, the parasite clearance half-life ([4]; 30 mg single dose (highest tested), phase 2a) was 1.47 h, the “clearance of parasitemia in patients” value ([4]; 3-day regimen of 30 mg daily, patients infected with P. falciparum or Plasmodium vivax, Thailand) was “demonstrated to clear parasitemia” and the “MIC estimated in patients” value ([4]; patients with P. falciparum malaria, doses 10, 15, 20 and 30 mg) was 0.1 ng/mL (≈ 0.256 nM). For the same compound, the “AUC0–∞” value ([5]; 10 mg, healthy subjects, first-in-human study) was 1860 ng·h/mL, the LFT abnormalities ([5]; 72 healthy subjects, single doses up to 300 mg or up to 150 mg daily for 3 days) was “only one subject displayed mild LFT abnormalities” and the tolerability in humans ([5]; single dose up to 300 mg or up to 150 mg daily for 3 days) was “tolerated”. For the same compound, the “AUC0–∞” value ([6]; 10 mg, patients with naturally acquired malaria) was 6400 ng·h/mL, the LFT abnormalities ([6]; 30 mg per day for 3 days, 11 P. falciparum and 10 P. vivax patients) was “three subjects displayed LFT abnormalities” and the “patients with increased ALT” value [6, 10] was “only one patient displayed increased ALT”. The “patients with increased blood alkaline phosphatase” value [6, 10] was 40%, the subjects with hyperbilirubinemia [6, 10] was 20% and the “increased ALT” value [6, 11] was 192 U/liter. For the same compound, the “increased AST” value [6, 11] was 121 U/liter, the “peak ALT” value [6, 12] was 241 U/liter and the “peak AST” value [6, 12] was 106 U/liter. The “peak ALT” value ([6]; other P. vivax patient, day 6) was 78 U/liter, the “peak AST” value ([6]; other P. vivax patient, day 6) was 63 U/liter and the “patients with asymptomatic transient ALT elevations (>3 × ULN)” value ([6]; single 75-mg dose, cohort of 11 P. falciparum patients, ref unpublished, NCT01860989) was “four patients had asymptomatic transient ALT elevations”. For the same compound, the “cure in rodent malaria model” value [7] was “single-dose cure was demonstrated” and the “daily dose predicted to be sufficient to clear parasitemia in malaria patients” value [8] was 30 mg.

— paper PMC7849011, “Defining the Antimalarial Activity of Cipargamin in Healthy Volunteers Experimentally Infected with Blood-Stage Plasmodium falciparum” (Antimicrobial Agents and Chemotherapy, 2021)
